# Laboratory results as given in article PMC7948977 (The Journal of Biological Chemistry, 2020).
# Key:
# [1] = target: T1, ASFV dUTPase (African swine fever virus, UniProt Q65199); test: biochemical; type: binding
# [2] = target: T1, ASFV dUTPase; type: biochemical
# [3] = tested on: swine dUTPase; type: biochemical
# T1 sequence (Q65199 whole entry, looked up): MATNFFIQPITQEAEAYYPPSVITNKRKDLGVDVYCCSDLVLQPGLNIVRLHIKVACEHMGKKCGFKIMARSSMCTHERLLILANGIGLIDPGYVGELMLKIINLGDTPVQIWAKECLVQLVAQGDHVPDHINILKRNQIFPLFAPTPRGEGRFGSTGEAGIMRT
SMILES,Kd [1],mode of inhibition [1],inhibition of enzyme activity of ASFV dUTPase [2],selectivity of inhibitory activity for ASFV dUTPase over swine dUTPase [3]
O=c1ccn(CCCCNC(c2ccccc2)(c2ccccc2)c2ccccc2)c(=O)[nH]1 [compound 1],15.6 µM,competitive inhibitor,dose-dependent manner,selective for ASFV dUTPase over swine dUTPase
O=c1ccn(CCCCOC(c2ccccc2)(c2ccccc2)c2ccccc2)c(=O)[nH]1 [compound 2],cannot be calculated,,dose-dependent manner,
